# Data published in patent US20260335495A1, “SYNERGISTIC ACTIVITY OF NOVEL COMPOUNDS AGAINST PLANKTONIC AND BIOFILM CELLS OF CLINICALLY RELEVANT PATHOGENS” (priority 2021, published 2026).
# Experiments:
# [1] = system: MRSA ON184; assay: MIC and checkerboard (FICI), planktonic cells; format: cell-based, methicillin-resistant S. aureus; conditions: for MIC: alone, 24 h, 37 °C
# Procedure: (§1) The MIC was determined by the micro broth dilution method in 96-well plates. […] A 10 μL containing 1×10^5 bacterial cells or 2×10^3 fungal cells were added to each well. The inoculated plates were covered with a lid, sealed with Parafilm, and incubated for 24 h at 37 °C with slight rocking on a tilting platform shaker. After incubation, the optical density at 600 nm (OD 600) of the cultures in each well was measured using an xMark™ Microplate Absorbance Spectrophotometer (Bio-Rad). The MIC was defined as the lowest concentration of antimicrobial compound at which the culture OD600 values was similar to uninoculated control wells. MBCs and MFCs were determined by transferring 100 μL from each well with no apparent growth onto appropriate agar plates, followed by incubation for 24 h at 37 °C.
# (§2) The concentrations of antimicrobials used were based on previously determined MIC values. […] Microtiter plates were incubated at 37 °C for 24 h, and the results were analyzed. Each test was performed in duplicate and included a growth control without the addition of any antimicrobials.
# [2] = system: E. coli SK2; assay: MBC/MFC and FMCI, planktonic cells; format: cell-based; conditions: for MBC/MFC: alone
# Procedure: as §1, §2
# [3] = system: Escherichia coli ON29; assay: MBC/MFC and FMCI, planktonic cells; format: cell-based; conditions: for MBC/MFC: alone
# Procedure: as §1, §2
# [4] = system: Proteus mirabilis ON153; assay: MBC/MFC and FMCI, planktonic cells; format: cell-based; conditions: for MBC/MFC: alone
# Procedure: as §1, §2
# [5] = system: S. epidermidis SK9; assay: MBC/MFC and FMCI, planktonic cells; format: cell-based; conditions: for MBC/MFC: alone
# Procedure: as §1, §2
# [6] = system: Serratia marcescens SK2; assay: MBC/MFC and FMCI, planktonic cells; format: cell-based; conditions: for MBC/MFC: alone
# Procedure: as §1, §2
# [7] = system: Staphylococcus aureus ON89; assay: MBC/MFC and FMCI, planktonic cells; format: cell-based; conditions: for MBC/MFC: alone
# Procedure: as §1, §2
# [8] = system: Staphylococcus epidermidis ON170; assay: MBC/MFC and FMCI, planktonic cells; format: cell-based; conditions: for MBC/MFC: alone
# Procedure: as §1, §2
# [9] = system: MRSA ON184; assay: MBC/MFC and FMCI, planktonic cells; format: cell-based, methicillin-resistant S. aureus; conditions: for MBC/MFC: alone
# Procedure: as §1, §2
# [10] = system: C. albicans ON47; assay: MBC/MFC and FMCI, planktonic cells; format: cell-based; conditions: for MBC/MFC: alone
# Procedure: as §1, with “The MIC was defined as the lowest concentration of antimicrobial compound at which the culture OD600 values was similar to uninoculated control wells.” left out
# as §2
# [11] = system: Candida albicans SK4b; assay: MBC/MFC and FMCI, planktonic cells; format: cell-based; conditions: for MBC/MFC: alone
# Procedure: as §1, with “The MIC was defined as the lowest concentration of antimicrobial compound at which the culture OD600 values was similar to uninoculated control wells.” left out
# as §2
# [12] = system: Pseudomonas aeruginosa SK1; assay: MBC/MFC and FMCI, planktonic cells; format: cell-based; conditions: for MBC/MFC: alone
# Procedure: as §1, with “The MIC was defined as the lowest concentration of antimicrobial compound at which the culture OD600 values was similar to uninoculated control wells.” left out
# as §2
# [13] = system: Stenotrophomonas maltophilia ON17; assay: MBC/MFC and FMCI, planktonic cells; format: cell-based; conditions: for MBC/MFC: alone
# Procedure: as §1, with “The MIC was defined as the lowest concentration of antimicrobial compound at which the culture OD600 values was similar to uninoculated control wells.” left out
# as §2
# [14] = system: preformed biofilms of test pathogens; assay: MBEC and FBEC index, 48 h old biofilms, summary over strains; format: cell-based, bacterial and fungal strains; conditions: alone: 4% tetrasodium EDTA, 50% ethanol, 100 μg/mL chlorhexidine HCl, 24 hours
# Procedure: The evaluation of the biofilm cultivation cell composition was evaluated using an MBEC Assay® biofilm inoculator, consisting of a polystyrene lid with 96 downward-protruding pegs and a corresponding base used to grow biofilms. A standardized inoculum was diluted in an appropriate biofilm growth medium to achieve a viable cell count of 1.5×10^6 CFU/mL of bacterial cells or 5×10^5 CFU/mL of fungal cells. Then, 150 μL of this inoculum was transferred into each appropriate well, and the peg lids were inserted into the microtiter plates. The plates were sealed with Parafilm and were incubated at optimum temperature for 48 h with slight rocking for bacteria and shaking at 200 rpm for fungal strains. After incubation, the peg lid was removed from the base and rinsed twice with sterile phosphate-buffered saline (PBS) for 2 min to remove loosely attached non-sessile cells. Before the antimicrobial challenge, the pegs in column 1 (n=8) were considered as the biofilm growth control; these pegs were removed from the lids, placed into 200 μL of recovery medium, and analyzed for starting biofilm cell numbers as described below. […] After the antimicrobial challenge, the pegs were rinsed twice with sterile PBS for 2 min and placed into a new 96-well plate containing 200 μL of recovery medium. The recovery plates were sealed with Parafilm, and biofilm cells were dislodged from the pegs by sonication for 30 min with a Branson 3510 bath sonicator. The biofilm cells in the recovery medium were serially diluted, and a drop dilution assay was performed to enumerate the viable cells.
# In step (4), microtiter plates are incubated at 37 °C for 24 h. then (6), after incubation, the bacterial and fungal cells were dislodged from the pegs into the recovery medium described above.
# Three 10-μL aliquots, for a total of 30 μL from each well of recovery medium, were spotted on MH agar plates and incubated for 24 hours at 37 °C. […] The FBEC determination is a modification of the FICI. […]
# [15] = system: bacterial and fungal biofilms; assay: Rapid eradication of 48-h-old biofilms within 2 h exposure; format: cell-based, bacterial and fungal strains; conditions: at the MBEC alone, 48-h-old biofilm
# Procedure: This example comprises performing biofilm growth as described above. After biofilm formation, control pegs (n=6) were removed and analyzed to determine the starting biofilm cell numbers via the drop dilution method. The 48-h old biofilms on the pegs were exposed to different concentrations of test antimicrobials, dissolved in an appropriate growth medium, for 2 hours to evaluate their efficacy alone and in combination. […] Following treatment, pegs were washed twice with sterile PBS, and the biofilm cells were dislodged into recovery medium and enumerated as described above.
smiles,measurement,setting,value
"O=C(O)CN(CCN(CC(=O)O)CC(=O)O)CC(=O)O.[Na].[Na].[Na].[Na] [TE, tetrasodium ethylenediaminetetraacetic acid]",MIC in combination,[1]; TE + CH in combination,0.008%
same,MIC in combination,[1]; TE + ET in combination,0.015%
same,MIC,[1],0.063%
same,MBC/MFC in combination,[2]; TE + CH in combination,0.015%
same,MBC/MFC in combination,[2]; TE + ET in combination,0.25%
same,MBC/MFC,[2],0.5%
same,MBC/MFC in combination,[3]; TE + CH in combination,0.008%
same,MBC/MFC in combination,[3]; TE + ET in combination,0.25%
same,MBC/MFC,[3],1%
same,MBC/MFC in combination,[4]; TE + CH in combination,0.125%
same,MBC/MFC in combination,[4]; TE + ET in combination,0.063%
same,MBC/MFC,[4],2%
same,MBC/MFC in combination,[5]; TE + CH in combination,0.008%
same,MBC/MFC in combination,[5]; TE + ET in combination,0.031%
same,MBC/MFC,[5],0.5%
same,MBC/MFC in combination,[6]; TE + CH in combination,0.125%
same,MBC/MFC in combination,[6]; TE + ET in combination,0.25%
same,MBC/MFC,[6],2%
same,MBC/MFC in combination,[7]; TE + CH in combination,0.008%
same,MBC/MFC in combination,[7]; TE + ET in combination,0.25%
same,MBC/MFC,[7],1%
same,MBC/MFC in combination,[8]; TE + CH in combination,0.25%
same,MBC/MFC in combination,[8]; TE + ET in combination,0.031%
same,MBC/MFC,[8],0.5%
same,MBC/MFC in combination,[9]; TE + CH in combination,0.125%
same,MBC/MFC in combination,[9]; TE + ET in combination,0.031%
same,MBC/MFC,[9],2%
same,MBC/MFC in combination,[10]; TE + CH in combination,0.031%
same,MBC/MFC in combination,[10]; TE + ET in combination,0.25%
same,MBC/MFC,[10],2%
same,MBC/MFC in combination,[11]; TE + CH in combination,0.125%
same,MBC/MFC in combination,[11]; TE + ET in combination,0.25%
same,MBC/MFC,[11],1%
same,MBC/MFC in combination,[12]; TE + CH in combination,0.031%
same,MBC/MFC in combination,[12]; TE + ET in combination,0.031%
same,MBC/MFC,[12],1%
same,MBC/MFC in combination,[13]; TE + CH in combination,0.031%
same,MBC/MFC in combination,[13]; TE + ET in combination,0.125%
same,MBC/MFC,[13],1%
same,eradication of all established biofilms,[14],able to eradicate all established biofilms
same,biofilm eradication,[15],failed to eradicate the preformed biofilms
"CCO [ET, ethanol]",MIC in combination,[1]; TE + ET in combination,0.4%
same,MIC,[1],6.25%
same,MBC/MFC in combination,[2]; TE + ET in combination,6.25%
same,MBC/MFC,[2],25%
same,MBC/MFC in combination,[3]; TE + ET in combination,6.25%
same,MBC/MFC,[3],25%
same,MBC/MFC in combination,[4]; TE + ET in combination,6.25%
same,MBC/MFC,[4],12.5%
same,MBC/MFC in combination,[5]; TE + ET in combination,3.125%
same,MBC/MFC,[5],12.5%
same,MBC/MFC in combination,[6]; TE + ET in combination,6.25%
same,MBC/MFC,[6],12.5%
same,MBC/MFC in combination,[7]; TE + ET in combination,3.125%
same,MBC/MFC,[7],25%
same,MBC/MFC in combination,[8]; TE + ET in combination,1.6%
same,MBC/MFC,[8],6.25%
same,MBC/MFC in combination,[9]; TE + ET in combination,3.125%
same,MBC/MFC,[9],25%
same,MBC/MFC in combination,[10]; TE + ET in combination,3.125%
same,MBC/MFC,[10],6.25%
same,MBC/MFC in combination,[11]; TE + ET in combination,3.125%
same,MBC/MFC,[11],6.25%
same,MBC/MFC in combination,[12]; TE + ET in combination,6.25%
same,MBC/MFC,[12],12.5%
same,MBC/MFC in combination,[13]; TE + ET in combination,1.6%
same,MBC/MFC,[13],6.25%
same,eradication of all established biofilms,[14],able to eradicate all established biofilms
same,biofilm eradication,[15],failed to eradicate the preformed biofilms
